Measured values reported in patent US9326986B2, “Quinazolinone, quinolone and related analogs as sirtuin modulators” (GLAXOSMITHKLINE LLC, priority 2008, dated 2016).

Biological target: T1, SIRT1 (Homo sapiens, UniProt Q96EB6)
T1 sequence (Q96EB6 1-747): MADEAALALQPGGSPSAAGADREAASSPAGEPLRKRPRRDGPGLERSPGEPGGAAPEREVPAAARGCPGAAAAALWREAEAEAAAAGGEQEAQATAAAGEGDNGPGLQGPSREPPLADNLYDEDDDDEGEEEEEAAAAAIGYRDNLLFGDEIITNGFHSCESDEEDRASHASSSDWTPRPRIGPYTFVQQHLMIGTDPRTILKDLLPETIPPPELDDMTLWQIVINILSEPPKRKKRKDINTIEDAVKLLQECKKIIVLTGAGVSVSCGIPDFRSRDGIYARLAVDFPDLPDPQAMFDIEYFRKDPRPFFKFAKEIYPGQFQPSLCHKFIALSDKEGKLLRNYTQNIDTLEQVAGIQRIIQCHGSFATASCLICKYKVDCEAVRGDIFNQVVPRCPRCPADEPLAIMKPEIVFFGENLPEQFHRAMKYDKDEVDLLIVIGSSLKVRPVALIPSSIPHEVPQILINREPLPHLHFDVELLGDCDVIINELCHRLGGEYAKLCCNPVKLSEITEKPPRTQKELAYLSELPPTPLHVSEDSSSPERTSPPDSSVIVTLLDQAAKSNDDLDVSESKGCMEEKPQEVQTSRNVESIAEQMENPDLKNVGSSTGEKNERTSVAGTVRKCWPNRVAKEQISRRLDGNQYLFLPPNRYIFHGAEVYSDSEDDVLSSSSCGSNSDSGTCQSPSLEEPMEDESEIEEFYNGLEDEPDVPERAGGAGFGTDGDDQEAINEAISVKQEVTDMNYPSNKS
Assay: Mass spectrometry based assay to identify modulators of SIRT1 activity (deacetylation of p53-based acetylated peptide)
Type: biochemical
Conditions: 10 nM SIRT1, 0.5 μM peptide substrate, 120 μM βNAD+, 25 minutes at 25° C.; for EC1.5 μM: SIRT1 activation

SMILES	% Fold Act. (percent maximum fold activation)	EC1.5 μM
COc1cccc(C(=O)Nc2cccc3c(=O)cc(-c4cccc(C(F)(F)F)c4)[nH]c23)n1 [Compound 422]	A (Fold activation>200%)	A (EC1.5<1.0 μM)
O=C(Nc1cccc2c(=O)[nH]c(-c3cccc(C(F)F)c3)nc12)c1cnccn1 [Compound 311]	B (Fold Activation<200%)	C (EC1.5>25 μM)
CC(C)n1c(-c2cccc(C(F)(F)F)c2)nc2c(NC(=O)c3cnccn3)cccc2c1=O [Compound 267]	A (Fold activation>200%)	A (EC1.5<1.0 μM)
Cn1c(-c2ccncn2)nc2c(NC(=O)c3cnccn3)cccc2c1=O [Compound 280]	B (Fold Activation<200%)	C (EC1.5>25 μM)
Cn1ccnc1C(=O)Nc1cccc2c(=O)cc(-c3cccc(C(F)(F)F)c3)[nH]c12 [Compound 420]	A (Fold activation>200%)	A (EC1.5<1.0 μM)
O=C(Nc1cccc2c(=O)cc(-c3cccc(C(F)(F)F)c3)[nH]c12)c1cnccn1 [Compound 409, N-(4-oxo-2-(3-(trifluoromethyl)phenyl)-1,4-dihydroquinolin-8-yl)pyrazine-2-carboxamide]	A (Fold activation>200%)	A (EC1.5<1.0 μM)
O=C(Nc1ccccn1)c1cccc2c(=O)[nH]c(-c3cccc(C(F)F)c3)nc12 [Compound 319]	B (Fold Activation<200%)	C (EC1.5>25 μM)
Cn1c(-c2cccc(C(F)(F)F)c2)nc2c(C(=O)Nc3cccc(OC[C@@H](O)CO)n3)cccc2c1=O [Compound 356]	A (Fold activation>200%)	A (EC1.5<1.0 μM)
Cn1c(-c2cccc(C(F)(F)F)c2)nc2c(NC(=O)c3cncc(N4CCOCC4)n3)cccc2c1=O [Compound 336]	A (Fold activation>200%)	A (EC1.5<1.0 μM)
O=C(Nc1cccc2c(=O)cc(-c3cccc(C(F)(F)F)c3)[nH]c12)c1cccc(CN2CCOCC2)n1 [Compound 448]	A (Fold activation>200%)	A (EC1.5<1.0 μM)
Cn1c(-c2cccc(C(F)(F)F)c2)nc2c(NC(=O)c3cccc(N4CCOCC4)n3)cccc2c1=O [Compound 341]	A (Fold activation>200%)	A (EC1.5<1.0 μM)
O=C(Nc1cccc2c(=O)cc(-c3cccc(C(F)(F)F)c3)[nH]c12)c1cccnc1 [Compound 419]	A (Fold activation>200%)	A (EC1.5<1.0 μM)
Cn1c(C2CCC2)nc2c(C(=O)Nc3ccccn3)cccc2c1=O [Compound 224]	B (Fold Activation<200%)	C (EC1.5>25 μM)
Cn1c(-c2cccc(C(F)(F)F)c2)nc2c(C(=O)Nc3ccccn3)cccc2c1=O [Compound 206]	A (Fold activation>200%)	A (EC1.5<1.0 μM)
CCCn1c(-c2cccc(C(F)(F)F)c2)nc2c(C(=O)Nc3ccccn3)cccc2c1=O [Compound 270]	B (Fold Activation<200%)	C (EC1.5>25 μM)
Cn1c(-c2cccc(C(F)(F)F)c2)nc2c(C(=O)Nc3ncc(CN4CCOCC4)s3)cccc2c1=O [Compound 308]	A (Fold activation>200%)	B (EC1.5 1-25 μM)
Cn1c(-c2cccc(OC(F)(F)F)c2)nc2c(NC(=O)c3cnccn3)cccc2c1=O [Compound 204]	A (Fold activation>200%)	A (EC1.5<1.0 μM)
Cn1c(-c2cccc(C(F)(F)F)c2)nc2c(C(=O)Nc3cccc(OCC(O)CO)c3)cccc2c1=O (centres unmarked) [Compound 286]	A (Fold activation>200%)	A (EC1.5<1.0 μM)
CN1CCCCC1C(=O)Nc1cccc2c(=O)n(C)c(-c3cccc(C(F)(F)F)c3)nc12 (centres unmarked) [Compound 343]	B (Fold Activation<200%)	C (EC1.5>25 μM)

SMILES	% Fold Act. (percent maximum fold activation)	EC1.5 μM
Cn1c(-c2ccccc2OC(F)(F)F)nc2c(C(=O)Nc3ccccn3)cccc2c1=O [Compound 213]	A (Fold activation>200%)	B (EC1.5 1-25 μM)
Cn1c(-c2cccc(C(F)(F)F)c2)nc2c(C(=O)Nc3ccnc(N4CCCC4)c3)cccc2c1=O [Compound 349]	A (Fold activation>200%)	A (EC1.5<1.0 μM)
Cn1c(-c2cccc(C(F)(F)F)c2)nc2c(C(=O)Nc3ccnc(N4CCOCC4)c3)cccc2c1=O [Compound 304]	A (Fold activation>200%)	A (EC1.5<1.0 μM)
Cn1c(-c2cccc(C(F)(F)F)c2)nc2c(C(=O)Nc3ccnc(OCC(O)CO)n3)cccc2c1=O (centres unmarked) [Compound 355]	A (Fold activation>200%)	A (EC1.5<1.0 μM)
O=C(Nc1cccc2c(=O)cc(-c3cccc(C(F)(F)F)c3)[nH]c12)c1cscn1 [Compound 405]	A (Fold activation>200%)	A (EC1.5<1.0 μM)
Cn1c(-c2cccc(C(F)(F)F)c2)nc2c(C(=O)Nc3cccc(N4CCOCC4)n3)cccc2c1=O [Compound 293]	A (Fold activation>200%)	A (EC1.5<1.0 μM)
Cn1c(-c2cccc(C(F)(F)F)c2)nc2c(NC(=O)c3cccc(N4CCCC4)n3)cccc2c1=O [Compound 342]	A (Fold activation>200%)	A (EC1.5<1.0 μM)
Cn1c(-c2ccccc2S(C)(=O)=O)nc2c(C(=O)Nc3ccccn3)cccc2c1=O [Compound 221]	A (Fold activation>200%)	B (EC1.5 1-25 μM)
Cn1c(-c2cccc(C(F)(F)F)c2)nc2c(C(=O)Nc3cccnc3)cccc2c1=O [Compound 265]	A (Fold activation>200%)	B (EC1.5 1-25 μM)
Cn1c(-c2cccc(C(F)(F)F)c2)nc2c(C(=O)Nc3ncc(CN4CCCC4)s3)cccc2c1=O [Compound 358]	A (Fold activation>200%)	B (EC1.5 1-25 μM)
Cc1cc(C(=O)Nc2cccc3c(=O)cc(-c4cccc(C(F)(F)F)c4)[nH]c23)n(C)n1 [Compound 410]	A (Fold activation>200%)	A (EC1.5<1.0 μM)
O=C(Nc1cccc2c(=O)[nH]c(-c3cccc(C(F)(F)F)c3)nc12)c1cnccn1 [Compound 231]	B (Fold Activation<200%)	C (EC1.5>25 μM)
Cn1c(-c2ccccc2OC(F)F)nc2c(C(=O)Nc3ccccn3)cccc2c1=O [Compound 327]	A (Fold activation>200%)	B (EC1.5 1-25 μM)
Cn1cc(-c2nc3c(NC(=O)c4cnccn4)cccc3c(=O)n2C)cn1 [Compound 291]	B (Fold Activation<200%)	C (EC1.5>25 μM)
Cc1ncoc1C(=O)Nc1cccc2c(=O)n(C)c(-c3cccc(C(F)(F)F)c3)nc12 [Compound 230]	A (Fold activation>200%)	A (EC1.5<1.0 μM)
Cn1c(-c2cccc(C(F)(F)F)c2)nc2c(C(=O)Nc3ccnc(CN4CCCC4)n3)cccc2c1=O [Compound 359]	A (Fold activation>200%)	B (EC1.5 1-25 μM)
Cn1c(-c2cccc(C(F)(F)F)c2)nc2c(NC(=O)c3cccnc3)cccc2c1=O [Compound 240]	A (Fold activation>200%)	B (EC1.5 1-25 μM)
O=C(Nc1cccc2c(=O)[nH]c(-c3cccc(OC(F)F)c3)nc12)c1cnccn1 [Compound 316]	B (Fold Activation<200%)	C (EC1.5>25 μM)
